# Test results published in patent publication US20220273005A1, “METHOD OF INDUCING BACTERIAL HEAT SENSITIVITY” (THE STATE OF ISRAEL, MINISTRY OF AGRICULTURE & RURAL …, priority 2019, published 2022).
# Legend:
# [1] = tested on: Bacillus subtilis NCIB 3610 pellicle biofilm; experiment: Pellicle biofilm formation with CL added to the medium; type: cell-based; details: FIG. 5A
# Experimental: Three kinds of biofilms were tested—colony type, pellicle and bundles. For colony type—bacteria were grown in LB medium for 5h and then 3-5 μl of the culture were spotted on an LB-GM (1% tryptone, 0.5% yeast extract, 0.5% NaCl, 1% glycerol, 0.1 mM MnSO4 and 2% agar) (Difco) or modified MRS (MMRS—MRS pH 7) (Man, Rogosa & Sharpe) (Hy-labs) plates. Once the spotted drops were soaked into the medium, the plates were incubated upside down at 30° C. for 72 h. For pellicle biofilm formation 24-well plates were used. Bacteria were grown in LB medium for 5 h and then the culture was diluted 1:1000 into MMRS. […] For the experiments with supplementation of CL, 0-100 μM CL dissolved in chloroform was added (final concentration of chloroform was 0.2%). For bundle type biofilm, a starter culture was prepared using a single bacterial colony inoculated into 5 ml of LB medium overnight at 30° C., 150 rpm. Next, bacteria were diluted 1:100 into fresh MMRS at 37° C., 25 rpm and after 5-7 h a 1 ml sample was taken and washed twice with sterile water. For longer incubation times, a starter culture was prepared using a single bacterial colony inoculated into 3 ml of LB medium for 5 h at 37° C., 150 rpm. Next, bacteria were diluted 1:100 into fresh MMRS at 23° C., 25 rpm overnight. The samples were visualized by fluorescence microscopy.
# [2] = tested on: Bacillus subtilis YC189 (PtapA-cfp) bundle biofilm; experiment: Bundle biofilm formation and tapA promoter (PtapA-cfp) activity with CL added, fluorescence microscopy; type: cell-based
# Experimental: (§1) Three kinds of biofilms were tested—colony type, pellicle and bundles. For colony type—bacteria were grown in LB medium for 5h and then 3-5 μl of the culture were spotted on an LB-GM (1% tryptone, 0.5% yeast extract, 0.5% NaCl, 1% glycerol, 0.1 mM MnSO4 and 2% agar) (Difco) or modified MRS (MMRS—MRS pH 7) (Man, Rogosa & Sharpe) (Hy-labs) plates. Once the spotted drops were soaked into the medium, the plates were incubated upside down at 30° C. for 72 h. For pellicle biofilm formation 24-well plates were used. Bacteria were grown in LB medium for 5 h and then the culture was diluted 1:1000 into MMRS. Next, plates were incubated at 30° C., 20 rpm for 48 h. For the experiments with supplementation of CL, 0-100 μM CL dissolved in chloroform was added (final concentration of chloroform was 0.2%). For bundle type biofilm, a starter culture was prepared using a single bacterial colony inoculated into 5 ml of LB medium overnight at 30° C., 150 rpm. Next, bacteria were diluted 1:100 into fresh MMRS at 37° C., 25 rpm and after 5-7 h a 1 ml sample was taken and washed twice with sterile water. For longer incubation times, a starter culture was prepared using a single bacterial colony inoculated into 3 ml of LB medium for 5 h at 37° C., 150 rpm. Next, bacteria were diluted 1:100 into fresh MMRS at 23° C., 25 rpm overnight. The samples were visualized by fluorescence microscopy.
# (§2) For visualization of bundle type biofilm a 1 ml sample was taken and washed twice with sterile water. Next Nonyl Acridine Orange (NAO) (Invitrogen A1372) was added to a final concentration of 100 nM for a 20 minutes incubation at room temperature. Next 3-7 μl from each sample were loaded on a microscopy glass slide. The samples were visualized using a fluorescent microscope in a transmitted light microscope using differential interference contrast (DIC) and 426-450 nm laser for CFP excitation (for visualization of YC189) or 457 nm-487 nm laser for GFP excitation (for visualization of NAO stained samples) (Nikon Eclipse Ti2).
# [3] = tested on: Bacillus subtilis ΔclsA and ΔclsB mutants; experiment: Rescue of the biofilm phenotype of the cls mutants by added CL; type: cell-based; details: 10-fold serial dilutions of CL in the medium; data not shown
# Experimental: as §1, with “microscopy. […]” for “microscopy.”
# B. subtilis (WT 3610) = experiment: Combined effect of CL and surfactin on pellicle formation, NAO staining; type: cell-based, Bacillus subtilis; details: high concentration (50 μM), about 20 h, FIG. 6
# Experimental: as §2
# B. subtilis (WT 3610) was grown for 5 h at 37° C., 150 rpm according to the conditions described above. Then 2 μl of bacteria were added to 1 ml LBG accompanied by solutions with different concentrations of CL and surfactin. After about 20 h the samples were stained with NAO (according to the protocol described herein), which was added to the unwashed samples. Finally, the samples were washed after the staining and the pellicle formation was tested.
# Bacillus subtilis wt [4] = details: wt strain with Mg2+ ions; previously shown; cited from earlier work
# Bacillus subtilis wt [5] = details: wt strain with Mg2+ ions; previously shown; cited from earlier work; remark: listed apart in the source
# [6] = CL 10 μM and 100 μM, after 12 h, YC189, FIG. 5B
Molecule,"biofilm formation (pellicle) ([1]; CL 50 μM, 18 h post treatment)","pellicle biofilm formation ([1]; CL 5-50 μM, after 18 hours)","biofilm (bundle) formation [2, 6]","stimulation of the tapA operon (PtapA-cfp) [2, 6]","biofilm formation ([2]; CL 10 μM, after 18 h, YC189, FIG. 5C)","biofilm (bundle) formation ([2]; high concentrations of CL, after 18 h, YC189, FIG. 5C)",rescue of the mutants' biofilm phenotype [3],string-like structures connecting the bacteria (B. subtilis (WT 3610)),biofilm formation (Bacillus subtilis wt [4]),sensitivity to heat treatments (Bacillus subtilis wt [5])
cardiolipin [CL],reduced biofilm formation,delay in pellicle biofilm formation,biofilm is not formed,not stimulated,substantially reduced,bundles start to form,not able to rescue,string-like structures connecting the bacteria have been observed,,
[Mg+2] [Mg^2+ ions],,,,,,,,,biofilm is not formed,more sensitive to heat treatments
